Source: patent publication US4837228A, “Antiinflammatory and antimicrobial compounds and compositions” (The University of Mississippi, priority 1982, dated 1989)
Entries after “also recorded” stand apart in the source; their conditions may differ. Where two headings read alike, the source gives them in different places.

What was measured:
[1] = deaths and adverse effects observed in the rat paw edema test; type: in vivo; settings: 240 mg/kg i.p. plus ethyl urethane i.p.; listed as PBZ
Description: (§1) In the Rat Paw Edema Test, the rats utilized were divided into test groups of six to eight animals, weighed and marked so that individual rats could be identified; one hour before testing all rats were given a 700 mg/kg intraperitoneal injection of ethyl urethane in distilled water to render them tractable during testing. A circle was drawn, with a felt-tipped marker, around the hind leg of each rat just above the ankle, and each rat was dosed with a test or control compound by intraperitoneal injection. Negative control groups received the vehicle; while positive control groups received a dose of phenylbutazone (PBZ) as shown in Table II. Test compounds were given at doses of 60, 120, 240 and 480 mg/kg. The positive controls were given at 120 mg/kg and 60 mg/kg. Phenylbutazone was prepared for injection by suspending it in normal saline using Tween 60. The rats were then held in group cages for 30 minutes. The volume of the left hind paw was measured using a mercury displacement pleysmograph. The paw is dipped into the mercury until the mercury touches the line above the ankle. Mercury is then withdrawn until the mercury returns to its original level. The amount of mercury removed is measured in milliliters (ml). The mercury can be measured accurately to 0.01 ml. This left hind paw was then injected with 0.1 ml of a 5% w/v solution of viscous carageenan in normal saline. The injection was given between the metatarsal bones using a 27 gauge needle, and the rats then held in group cages for 3 hours. The volume of the left hind paws was measured again in the pleysmograph. The results were computed in the following manner:
The eighth rat died within 24 hours of injection.

[2] = system: carrageenan-induced rat paw edema; assay: carrageenan-induced rat paw edema test, intraperitoneal dosing; type: in vivo; set-up: key to mean difference in volume (MDV): post-injection minus pre-injection mean paw volume
Description: Two methods were used to assess the antiinflammatory activity of the compounds of the invention: the carrageenan-induced rat paw edema test and, the erythrocyte membrane stabilization assay.
as §1
(§2) a. A mean is taken for both the pre-injection and post-injection paw volume of each test group.
(§3) b. The mean difference in volume (MDV) for each test group is computed by subtracting the pre-injection means from the post-injection mean.
(§4) c. The percent of control is computed for each test [formula] The percent of control is used to compare the efficacy of the various drug treatments.
(§5) d. The percent increase in paw volume is calculated for each group as: [formula] The percent increase is used to compare the amount of edma observed in one experiment to the amount of edma observed in other experiments.
The data from the rat paw test were further analyzed using a one-way analysis of varience (ANOVA) and Duncan's New Multiple Range Test. The pre-injection score of each animal was subtracted from his post-injection score and an analysis of the different scores were conducted.
The procedure described above was followed. […] The vehicle control used was Tween 60, Arlacel and distilled water prepared without CBC(II).

[3] = system: erythrocyte (heat-induced hemolysis); assay: erythrocyte membrane stabilization assay (heat-induced erythrocyte hemolysis); type: cell-based; settings: Erythrocyte; for inhibition at 250 µM: 2.5 × 10^-4 M
Description: The published procedure (Proc. Soc. Exp. Biol. Med. 1967; 125; 837-842 Brow et al) for in vitro assay for antiinflammatory agents based on stabilization of erythrocytes was used. All compounds were prepared for administration by dissolving in physiologic saline or suspending in 2% ethanol in saline and the pH adjusted to 7.4 The concentrations tested in one series are given in Table 8. Aspirin (ASA) and phenylbutazone were used as positive controls for comparison of activity. Tests using this procedure were successfully and repeatedly using either 40% or 20% RBC suspensions.

[4] = system: carrageenan-induced rat paw edema; assay: carrageenan-induced rat paw edema test, oral gavage; type: in vivo; set-up: key to mean difference in volume (MDV): ml; post-injection minus pre-injection mean paw volume
Description: as §1, with “A circle was drawn, with a felt-tipped marker, around the hind leg of each rat just above the ankle, and each rat was dosed with a test or control compound by intraperitoneal injection.” left out
as §2, §3, §4, §5
[…] The test was conducted twice, once with nonfasted rats and once with rats that had been fasted during the 24 hour period prior to dosing. The 60 mg/kg phenylbutazone control group was not used in the test with fasted animals. Tween 60 in normal saline was the vehicle control for the non-fasted rats and normal saline was the vehicle control for the fasted rats.

[5] = Table 4, 60 mg/kg i.p., fasted rats
[6] = Table 4, 120 mg/kg i.p., fasted rats
[7] = Table 6, 60 mg/kg oral, non-fasted rats
[8] = Table 6, 120 mg/kg oral, non-fasted rats
[9] = Table 7, 120 mg/kg oral, fasted rats, doses approximate

CCCCC1C(=O)N(c2ccccc2)N(c2ccccc2)C1=O [Phenylbutazone, reference compound]
deaths [1]: rapid deaths; also recorded: Seven of the eight animals receiving 240 mg/kg of PBZ died before the test could be completed | inhibition at 60 mg/kg ([2]; Rattus norvegicus, ip, Table 5, 60 mg/kg i.p., * P = 0.01): 52% | inhibition at 120 mg/kg ([2]; Rattus norvegicus, ip, Table 5, 120 mg/kg i.p., * P = 0.01, read-out: inhibition of carrageenan-induced rat paw edema): 76% | percent increase in paw volume ([2]; Table 1, 120 mg/kg i.p.): 10.316% | percent of control ([2]; Table 1, 120 mg/kg i.p.): 22.973% | mean difference in volume (MDV) ([2]; Table 1, 120 mg/kg i.p., paw volume measured in ml): 0.106 | group mean difference score ([2]; Table 3, 120 mg/kg): 0.016 | difference of mean scores versus vehicle control (Duncan's test) ([2]; Table 3, 120 mg/kg, ** p 0.01): 0.356 | difference of mean scores (Duncan's test) ([2]; Table 3, PBZ 120 mg/kg versus CBC 240 mg/kg): 0.102 | difference of mean scores (Duncan's test) ([2]; Table 3, PBZ 120 mg/kg versus CBC 480 mg/kg, * p 0.05): 0.149 | mean difference in volume (MDV) [2, 5]: 0.090 | percent increase in paw volume [2, 5]: 6.742% | percent of control [2, 5]: 47.059% | mean difference in volume (MDV) [2, 6]: 0.046 | percent increase in paw volume [2, 6]: 3.254% | percent of control [2, 6]: 24.183% | inhibition at 100 µM ([3]; Table 8, 1 × 10^-4 M, read-out: inhibition of heat-induced erythrocyte hemolysis): 16% | inhibition at 20 µM ([3]; Table 8, 2 × 10^-5 M, read-out: inhibition of heat-induced erythrocyte hemolysis): 10% | inhibition at 250 µM ([3]; Table 9 Test 1 (20% RBC), read-out: percent inhibition of heat-induced erythrocyte hemolysis): 54% | inhibition at 25 µM ([3]; Table 9 Test 1 (20% RBC), 2.5 × 10^-5 M, read-out: percent inhibition of heat-induced erythrocyte hemolysis): 31% | inhibition at 250 µM ([3]; Table 9 Test 2 (40% RBC), read-out: percent inhibition of heat-induced erythrocyte hemolysis): 70% | inhibition at 20 µM ([3]; Table 9 Test 3 (20% RBC), 2.0 × 10^-5 M, read-out: percent inhibition of heat-induced erythrocyte hemolysis): 10% | inhibition at 250 µM ([3]; Table 9 Test 3 (20% RBC), read-out: percent inhibition of heat-induced erythrocyte hemolysis): 49% | inhibition at 100 µM ([3]; read-out: percent inhibition of heat-induced erythrocyte hemolysis, Table 9 Test 3 (20% RBC), 1.0 × 10^-4 M): 16% | inhibition at 20 µM ([3]; 2×10^-5 M, read-out: inhibition of heat-induced red cell hemolysis): 10% | inhibition at 100 µM ([3]; 10^-4 M, read-out: inhibition of heat-induced red cell hemolysis): 16% | inhibition at 120 mg/kg ([4]; Rattus norvegicus, po, Table 5, 120 mg/kg oral, fasted rats, N.S., read-out: inhibition of carrageenan-induced rat paw edema): 36% | inhibition at 60 mg/kg ([4]; Rattus norvegicus, po, read-out: inhibition of carrageenan-induced rat paw edema, Table 5, 60 mg/kg oral, nonfasted rats, * P = 0.01): 37% | inhibition at 120 mg/kg ([4]; Rattus norvegicus, po, read-out: inhibition of carrageenan-induced rat paw edema, Table 5, 120 mg/kg oral, nonfasted rats): 22% | mean difference in volume (MDV) [4, 7]: 0.489 | percent increase in paw volume [4, 7]: 50.257% | percent of control [4, 7]: 78.200% | mean difference in volume (MDV) [4, 8]: 0.392 | percent increase in paw volume [4, 8]: 36.098% | percent of control [4, 8]: 62.667% | mean difference in volume (MDV) [4, 9]: 0.403 | percent increase in paw volume [4, 9]: 31.051% | percent of control [4, 9]: 64.400% | antiinflammatory activity compared with PBZ in words ([4]; oral): slightly more effective than CBC at 120 mg/kg in the nonfasted rats
